From patent US5817840A, “Water soluble taxol derivatives” (The Scripps Research Institute, priority 1997, dated 1998)
“Also recorded” adds a separate entry of the source.

Key:
[1] = system: HL-60 (promyel carcinoma); experiment: Cytotoxicity (sulphorhodamine B), cancer cell line, Table 1B; format: cell-based; conditions: Homo sapiens, HL-60, 72 h
Procedure: (§2) The cytotoxicities were determined using the sulphorhodamine B assay method (Skehan, P. et al. J. Nat. Canc. Inst. 82, 1107 (1990)).

[2] = system: SIHA (cervix carcinoma); experiment: as above; format: cell-based; conditions: Homo sapiens, SiHa, 72 h
Procedure: as §2

[3] = system: CHO (Chinese hamster ovary); experiment: Cytotoxicity (sulphorhodamine B), normal cell line, Table 1B; format: cell-based; conditions: Cricetulus griseus, 72 h
Procedure: as §2

[4] = system: BT-549 (breast carcinoma); experiment: Cytotoxicity (sulphorhodamine B), cancer cell line, Table 1B; format: cell-based; conditions: Homo sapiens, BT-549, 72 h
Procedure: as §2

[5] = system: HT-29 (colon carcinoma); experiment: as above; format: cell-based; conditions: Homo sapiens, HT-29, 72 h
Procedure: as §2

[6] = system: BALB/c 3T3 (normal mouse embryo); experiment: Cytotoxicity (sulphorhodamine B), normal cell line, Table 1B; format: cell-based; conditions: BALB/c3T3, 72 h
Procedure: as §2

[7] = system: H322 (lung carcinoma); experiment: Cytotoxicity (sulphorhodamine B), cancer cell line, Table 1B; format: cell-based; conditions: NCI-H322, 72 h
Procedure: as §2

[8] = system: OVCAR-3 (ovarian carcinoma); experiment: as above; format: cell-based; conditions: Homo sapiens, OVCAR-3, 72 h
Procedure: as §2

[9] = Stability in aqueous media, aprotic organic solvents and solid state; format: physicochemical; conditions: aqueous media / pH 7.0 buffer / 20° C.
From the text: (§1) The derivatives in which the C-7 hydroxyl group was acetylated were extremely unstable in aqueous media losing the C-7 substituent very rapidly. The stability of the synthesized compounds was examined at various pH's and temperatures. […] Table 1A includes the half-lives of six of these compounds at pH 7.5 and 9. […] This illustrates the ability to fine-tune the rate of release of taxol to a desired set of conditions using simple chemical principles.

[10] = system: tubulin / microtubules; experiment: Tubulin polymerization-depolymerization (CaCl2-induced depolymerization of microtubules); format: biochemical; conditions: 10^-6 M, 1.0 mg/mL tubulin
Procedure: Tubulin polymerization to microtubules is promoted by GTP, whereas CaCl2 causes depolymerization of microtubules back to tubulin (FIG. 3A). […] The designed protaxol 5 was tested for its ability to stabilize microtubules formed from tubulin via the action of GTP. […] These findings are in agreement with the previously reported loss of activity resulting from blocking the C-2' hydroxyl group.
Tubulin polynerization-depolymerization experiments with taxol and designed protaxol 5 are illustrated in FIG. 3. CaCl2 -promoted depolymerization of microtubules was suppressed by taxol and protaxol 5 (after taxol release).
These measurements may be conducted at 37° C. following a recently developed procedure described by R. Merlock and W. Wrasidlo (Analytical Biochemistry, 1993). In each case 1.0 mM GTP may be employed to promote initial polymerization of tubulin.
D: Tubulin (1.0 mg/mL) with protaxol 5 (10^-6 M) after release of taxol (as determined by HPLC, essentially quantitative conversion).

[11] = system: CHO (normal human mammary); experiment: Cytotoxicity (sulphorhodamine B), normal cell line, Table 1B; format: cell-based; conditions: Homo sapiens, 72 h
[12] = Taxol release from protaxols in aqueous buffer; format: physicochemical; conditions: pH 7.0-9.0, 20 and 37° C., FIG. 2A
Procedure: as §1
Protaxol 5 was dissolved in dimethylsulphoxide (DMSO) at 25° C. and immediately added to the appropriate phosphate buffer solution at the specified temperature. Aliquots were analysed using a Waters Maxima system HPLC instrument equipped with auto-injector (3.9×300 mm C18 column equipped with a precolumn; flow rate, 1.5 ml min^-1; eluant, gradient A-B, where A is 80% 100 mM ammonium acetate, buffer pH 6.0, and B is 100% methanol; ultraviolet detector). The per cent taxol released was determined from the relative areas of the peaks corresponding to protaxol 5 and taxol (the conversion was clean, and it was assumed that the two compounds have equal molar extinction coefficients).

[13] = system: L1210 (mouse leukaemia); experiment: Cytotoxicity (sulphorhodamine B), cancer cell line, Table 1B; format: cell-based; conditions: L1210, 72 h
Procedure: as §2

[14] = system: MCF-7 (breast carcinoma); experiment: as above; format: cell-based; conditions: Homo sapiens, MCF7, 72 h
Procedure: as §2

[15] = Taxol release in human blood plasma at 37° C.; format: in vitro ADME
Procedure: Protaxol 5 and N-cyclohexylbenzamide (as internal standard) were dissolved in acetonitrile and immediatley added to human plasma or phosphate buffer at pH 7.4. Samples-of protaxol 5 were incubated in each medium for specified times and then extracted with ethyl acetate as described by S. M. Longnecker, et al., Cancer Treat. Rep. 71, 53 (1987). Solvent was removed and the residue dissolved in acetonitrile and analysed by HPLC as already described. The peak areas for compound 5 and taxol were normalized to that of the internal standard using a calibration curve.

[16] = system: 786-0 (renal cell carcinoma); experiment: Cytotoxicity (sulphorhodamine B), cancer cell line, Table 1B; format: cell-based; conditions: Homo sapiens, 786-0, 72 h
Procedure: as §2

[17] = system: UCLA-P-3 (lung carcinoma); experiment: as above; format: cell-based; conditions: Homo sapiens, UCLA P-3, 72 h
Procedure: as §2

[18] = Water solubility in D2O by 1H NMR; conditions: compared to taxol
Procedure: The solubilities of the synthesized protaxols in D2 O were determined by 1H NMR spectroscopy.
The resulting mixture was centrifuged for 20 minutes and the supernatant saturated solution was analysed by ^1 H NMR spectroscopy using a Bruker AMX-400 instrument and methanol or pyridine as internal standard. The concentration of the compound was determined by comparing several signals with the CH3 signal of methanol or the NCH signal of pyridine.

For `CC(=O)O[C@H]1C(=O)[C@@]2(C)[C@H]([C@H](OC(=O)c3ccccc3)[C@]3(O)C[C@H](OC(=O)[C@H](OC(=O)CS(=O)(=O)CC(=O)O)[C@@H](NC(=O)c4ccccc4)c4ccccc4)C(C)=C1C3(C)C)[C@]1(OC(C)=O)CO[C@@H]1C[C@@H]2O` [Compound 5], the IC50 [1] was < 0.001 µM, the IC50 [2] was 100 µM and the IC50 [3] was 100 µM. The IC50 [4] was < 0.001 µM, the IC50 [5] was < 0.001 µM and the IC50 [6] was 10 µM. For the same molecule, the IC50 [7] was 0.001 µM, the IC50 [8] was < 0.001 µM and the “stability in aqueous media” value [9] was “good solubility and stability properties in aqueous media; also recorded: quite stable”. The “prevention of CaCl2-induced depolymerization of microtubules” value ([10]; CaCl2 0.25 mM after 16 minutes, 37° C., initial, no prior release) was “failed to prevent CaCl2-induced disassembly of microtubules; also recorded: caused depolymerization of microtubules”, the “prevention of CaCl2-induced depolymerization of microtubules after taxol release” value ([10]; after prolonged exposure / release of taxol) was “reached potencies comparable to that of taxol; also recorded: suppressed” and the IC50 [11] was 100 µM. For the same molecule, the “effect of temperature and pH on taxol release” value [12] was “accelerating effect of higher temperatures and pH on taxol release”, the IC50 [13] was 10 µM and the IC50 [14] was 10 µM. The “taxol release in human blood plasma (in words)” value ([15]; compared to pH 7.4 buffer) was “accelerated release of taxol; also recorded: rapidly releasing taxol”, the half-life ([15]; human blood plasma) was ~1.67 h and the IC50 [16] was 1 µM. The IC50 [17] was < 0.001 µM and the “Water solubility (in words)” value [18] was “good solubility”.
